From US10550125B2, “Prodrugs of imidazotriazine compounds as CK2 inhibitors” (BRISTOL-MYERS SQUIBB COMPANY, priority 2015, dated 2020)
≈ marks a conversion by molar mass, not a printed value. Like-named read-outs stand apart in the source and are kept apart here.

What was measured:
[1] = Single-dose pharmacokinetics in rats (oral bioavailability); assay type: in vivo; conditions: for Oral Bioavailability in Rats, % F: male Sprague-Dawley rats, ratio of dose-normalized AUC, oral vs IV; for Prodrug bioavailability in Rats, % F: dose-normalized AUC of parent (Example 1) after oral prodrug vs IV infusion of parent
Experimental: In a study to determine oral bioavailability in male Sprague-Dawley rats, two groups of animals (N=3 per group, 300 to 350 g) are used. One group (non-fasted) receives the compound by IV infusion (over 10 minutes) via a jugular vein and one group (fasted) receives drug by oral gavage. Serial blood samples (˜0.3 mL) are collected from the jugular vein into tri-potassium ethylenediaminetetraacetic acid (K3EDTA)-containing tubes at 0.167 (for IV), 0.25, 0.5, 1, 3, 5, 7, and 24 hours, post dose and then centrifuged at 4° C. (1500 to 2000×g) to obtain plasma, which is stored at −20° C. until analysis by LC-MS/MS.
The pharmacokinetic parameters were obtained by non-compartmental analysis of plasma concentration (determined by LC/MS/MS) vs. time data (ThermoKinetica Software version 4.4.1). The peak concentration (Cmax) and time for Cmax, Tmax, were recorded directly from experimental observations. The area under the curve from time zero to the last sampling time (AUC0-t) was calculated using a combination of linear and log trapezoidal summations. The total plasma clearance (CLTp), steady-state volume of distribution (Vss), apparent elimination half-life (t½) and mean residence time (MRT) were estimated after IV administration. Estimation of T½ was made using a minimum of 3 time points with quantifiable concentrations.
For non-prodrugs, the absolute oral bioavailability F was estimated as the ratio of dose-normalized AUC values following oral and IV doses.
In case of prodrugs (e.g., Examples 2 and 5), absolute bioavailability F was estimated as the ratio of dose-normalized AUC values of parent (Example 1) upon oral administration of prodrugs (Examples 2 and 5) and IV infusion of parent (Example 1).

[2] = tested on: pCK2 motif; experiment: In vivo pharmacodynamic study, pCK2 motif inhibition in SNU-C1 (colon) xenograft tumor model; set-up: species or system mice; conditions: for % inh. of p-CK2 at 24th hour: oral gavage, SNU-C1 (colon) xenograft in mice
Experimental: pCK2 motif is a putative cellular substrate of CK2 with molecular weight of ˜60 kDa.
To determine extent of pCK2 motif inhibition by test compounds in vivo, SNU-C1 colon tumor cells were inoculated into female BALB/c athymic mice and propagated as subcutaneous xenografts. The dosing solutions of the compound or control were administered to mice with tumors reaching ˜500 mm by oral gavage at the indicated dose levels and schedules. Tumors were collected from control and treated mice at the indicated times and immediately frozen in liquid nitrogen. Frozen tumors were thawed on ice in 5 volumes of TTG buffer (Tris-HCl, pH 7.9, 10% glycerol, 0.02% Tween-20). Tumors were homogenized using a Qiagen TissueLyser II (3×1 min (1/30S)) in Qiagen Tissulyser tubes containing steel beads. Tumor homogenates were clarified by microcentrifugation at 13000 rpm for 10 min. Western blot analysis was performed using 60 μg of protein per lane on 4-15% BioRad SDS-PAGE gels. Blots were probed with an anti-pCK2 motif antibody (mAb #8738 Cell Signaling Technology) and anti-Actin antibody. The pCK2 motif antibody is a purified […] antibody developed by immunizing mice with a degenerate mixture of peptides corresponding to the consesnus phorylation site used by CK2. The intensity of the pCK2 motif band was measured on images obtained from the Licor Odyssey instrument. % pCK2 remaining at each dose was calculated relative to the average intensity of bands from untreated, control mouse tumors.

[3] = target: CK2A2 (Homo sapiens (Human), UniProt P19784); experiment: CK2 kinase assay (CK2A2); assay type: biochemical; conditions: recombinant CK2A2
CK2A2, sequence (P19784 whole entry): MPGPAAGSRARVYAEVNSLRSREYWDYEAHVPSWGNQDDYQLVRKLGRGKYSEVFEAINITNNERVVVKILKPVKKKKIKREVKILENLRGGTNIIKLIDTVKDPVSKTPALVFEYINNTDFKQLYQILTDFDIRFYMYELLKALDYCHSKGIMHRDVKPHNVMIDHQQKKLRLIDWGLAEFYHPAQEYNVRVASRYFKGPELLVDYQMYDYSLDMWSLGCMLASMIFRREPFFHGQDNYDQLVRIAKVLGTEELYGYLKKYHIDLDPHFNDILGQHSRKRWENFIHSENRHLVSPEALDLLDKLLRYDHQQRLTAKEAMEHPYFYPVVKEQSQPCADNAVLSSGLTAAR
Experimental: (§1) The effectiveness of compounds of the present invention as inhibitors of protein kinases can be readily tested by assays known to those skilled in the art. For example, in vitro protein kinase assays may be conducted with a relevant purified protein kinase and an appropriate synthetic substrate to determine the inhibitory activity of the compounds. […] Reaction mixtures were incubated at 30° C. for 1 hour, and reaction products were captured by binding to phosphocellulose (P81) filter plates. Incorporation of radioactive phosphate into the peptide substrate was determined by liquid scintillation counting. The potency of compounds in inhibiting CK2 is expressed as IC50, defined as the concentrations of compounds required to inhibit the enzymatic activity by 50%.
(§2) The inhibitory activity of the instant compounds may also be measured by recombinant CK2 holoenzyme kinase assays. The assays were performed in U-bottom 384-well plates. The final assay volume was 30 μl prepared from 15 μl additions of enzyme and substrates (fluoresceinated peptide FL-RRRADDSDDDDD-NH2 and ATP) and test compounds in assay buffer (20 mM HEPES pH 7.4, 10 mM MgCl2, 100 mM NaCl, 0.015% Brij35 and 0.25 mM DTT). The reaction was initiated by the combination of bacterially expressed, CK2 α/β or CK2 α′/β holoenzyme with substrates and test compounds. The reaction was incubated at room temperature for 60 minutes and terminated by adding 30 μl of 35 mM EDTA to each sample. The reaction mixture was analyzed on the Caliper LABCHIP® 3000 (Caliper, Hopkinton, Mass.) by electrophoretic separation of the fluorescent substrate and phosphorylated product. Inhibition data were calculated by comparison to no enzyme control reactions for 100% inhibition and vehicle-only reactions for 0% inhibition. The final concentration of reagents in the CK2 α/β assay was 25 μM ATP, 1.5 μM FL-RRRADDSDDDDD-NH2, 50 pM CK2 α/β holoenzyme, and 1.6% DMSO. The final concentration of reagents in the CK2 α′/β assay was 10 μM ATP, 1.5 μM FL-RRRADDSDDDDD-NH2, 100 pM CK2 α′/β holoenzyme, and 1.6% DMSO. Dose response curves were generated to determine the concentration required inhibiting 50% of kinase activity (IC50). Compounds were dissolved at 10 mM in dimethylsulfoxide (DMSO) and evaluated at eleven concentrations. IC50 values were derived by non-linear regression analysis.

[4] = Thermodynamic equilibrium aqueous solubility assay; assay type: physicochemical; conditions: for solubility at 24 h: aqueous buffer, thermodynamic from solid
Experimental: Standards Preparation: The calibration standard was prepared by accurately weighing 0.5-0.7 mg of sample in 5 ml of methanol. If the material was not fully soluble in methanol, other solvents such as DMSO or mixed solvents were used.
The solution was sonicated and vortexed for ˜30 seconds. The vials were shaken at 300 rpm at room temperature for 24 hrs. The exact incubation time for a specific prodrug was based on the prior aqueous stability data. If the compound was stable in the buffer up to 24 hrs, then the solubility was measured after 24 hrs, otherwise kinetic solubility data was reported. The final saturated solution was then transferred to a 1.5 mL eppendorf tube and centrifuged for ˜2 min. at 10000 rpms. The supernatant from the saturated solution was transferred to a glass HPLC vial and the solubility was analyzed by HPLC using a four point calibration curve.

[5] = target: CK2A1 (Homo sapiens (Human), UniProt P68400); experiment: CK2 kinase assay (CK2A1); assay type: biochemical; conditions: recombinant CK2A1
CK2A1, sequence (P68400 whole entry): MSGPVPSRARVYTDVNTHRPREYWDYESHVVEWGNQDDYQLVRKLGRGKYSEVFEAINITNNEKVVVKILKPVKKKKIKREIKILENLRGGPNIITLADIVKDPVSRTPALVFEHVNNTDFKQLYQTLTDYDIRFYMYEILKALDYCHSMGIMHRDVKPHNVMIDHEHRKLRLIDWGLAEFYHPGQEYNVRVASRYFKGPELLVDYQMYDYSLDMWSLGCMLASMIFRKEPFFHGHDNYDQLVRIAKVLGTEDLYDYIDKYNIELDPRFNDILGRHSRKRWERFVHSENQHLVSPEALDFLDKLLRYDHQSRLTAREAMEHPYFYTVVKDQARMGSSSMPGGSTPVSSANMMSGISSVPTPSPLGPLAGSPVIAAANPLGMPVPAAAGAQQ
Experimental: as §1, §2

[6] = 50 mM potassium phosphate buffer, pH 6.5, 50 mM potassium phosphate, read-out: Solubility pH 6.5
[7] = simulated gastric fluid, pH 1.0, read-out: Solubility pH 1.0
[8] = 50 mM sodium acetate buffer, pH 4.0, 50 mM sodium acetate, read-out: Solubility pH 4.0

Row | SMILES | Oral Bioavailability in Rats, % F [1] | % inh. of p-CK2 at 24th hour ([2]; 40 mg/kg BID) | IC50 [3] | bioavailability in rats compared to Example 174 of WO2014011974 (in words) ([1]; rats, oral) | solubility at 24 h [4, 6] | solubility at 24 h [4, 7] | % inh. of p-CK2 at 24th hour ([2]; 15 mg/kg BID) | suppression of pCK2 motif levels relative to vehicle control (in words) ([2]; SNU-C1 xenograft in mice, up to 24 hours) | IC50 [5] | Prodrug bioavailability in Rats, % F ([1]; rats) | solubility compared to the parent compound Example 1 (in words) [4] | solubility at 24 h [4, 8]
1 | COC(=O)N[C@H]1CCN(c2cc(C#N)cc(Nc3nc(NC4CC4)c4ncc(C#N)n4n3)c2Cl)C[C@@H]1O [174 (WO2014011974), reference compound] | 8 % F | 33%/40 mg/kg BID |  |  |  |  |  |  |  |  |  | 
2 | CCNc1nc(Nc2cc(C#N)cc(N3CCN([C@@H](C)C(N)=O)CC3)c2Cl)nn2c(C#N)cnc12 [Example 1, (S)-2-(4-(2-chloro-5-cyano-3-((7-cyano-4-(ethylamino)imidazo[2,1-f][1,2,4]triazin-2-yl)amino)phenyl)piperazin-1-yl)propanamide] | 68 % F |  | < 10 nM | marked improvement in bioavailability | < 1 µg/mL | 22 µg/mL (≈ 44.5 µM) | 91%/15 mg/kg BID | significantly suppressed | < 10 nM |  |  | 
3 | CCNc1nc(N(C(=O)OCOC(=O)Cc2ccc(OP(=O)(O)O)cc2)c2cc(C#N)cc(N3CCN([C@@H](C)C(N)=O)CC3)c2Cl)nn2c(C#N)cnc12 [Example 2, (S)-(((3-(4-(1-amino-1-oxopropan-2-yl)piperazin-1-yl)-2-chloro-5-cyanophenyl)(7-cyano-4-(ethylamino)imidazo[2,1-f][1,2,4]triazin-2-yl)carbamoyl)oxy)methyl 2-(4-(phosphonooxy)phenyl)acetate] |  |  | 10 to 100 nM |  | 835 µg/mL (≈ 1070 µM) | 242 µg/mL (≈ 309 µM) |  |  | 100 to 1000 nM | 40 % F | superior solubility | 124 µg/mL (≈ 159 µM)
4 | CCNc1nc(N(C(=O)OCOC(=O)/C=C/C(=O)O)c2cc(C#N)cc(N3CCN([C@@H](C)C(N)=O)CC3)c2Cl)nn2c(C#N)cnc12 [Example 3, (S,E)-4-((((3-(4-(1-amino-1-oxopropan-2-yl)piperazin-1-yl)-2-chloro-5-cyanophenyl)(7-cyano-4-(ethylamino)imidazo[2,1-f][1,2,4]triazin-2-yl)carbamoyl)oxy)methoxy)-4-oxobut-2-enoic Acid] |  |  | 10 to 100 nM |  |  |  |  |  | 100 to 1000 nM |  |  | 
5 | CCNc1nc(N(C(=O)OCOC(=O)CC(C)(C)COP(=O)(O)O)c2cc(C#N)cc(N3CCN([C@@H](C)C(N)=O)CC3)c2Cl)nn2c(C#N)cnc12 [Example 4, (S)-(((3-(4-(1-amino-1-oxopropan-2-yl)piperazin-1-yl)-2-chloro-5-cyanophenyl)(7-cyano-4-(ethylamino)imidazo[2,1-f][1,2,4]triazin-2-yl)carbamoyl)oxy)methyl 3,3-dimethyl-4-(phosphonooxy)butanoate] |  |  | < 10 nM |  |  |  |  |  | 10 to 100 nM |  |  | 
6 | CCNc1nc(N(C(=O)OCOC(=O)CC(C)(C)c2c(C)cc(C)cc2OP(=O)(O)O)c2cc(C#N)cc(N3CCN([C@@H](C)C(N)=O)CC3)c2Cl)nn2c(C#N)cnc12 [Example 5, (S)-(((3-(4-(1-amino-1-oxopropan-2-yl)piperazin-1-yl)-2-chloro-5-cyanophenyl)(7-cyano-4-(ethylamino)imidazo[2,1-f][1,2,4]triazin-2-yl)carbamoyl)oxy)methyl 3-(2,4-dimethyl-6-(phosphonooxy)phenyl)-3-methylbutanoate] |  |  | 10 to 100 nM |  | 1340 µg/mL (≈ 1580 µM) | 253 µg/mL (≈ 297 µM) |  |  | 100 to 1000 nM | 88 % F | superior solubility | 160 µg/mL (≈ 188 µM)
